# Measurements taken from patent US6605424B1, “Method of detecting inhibitors of agonist-specific desensitization” (Duke University, priority 1989, dated 2003).
# “And” between values parts separate entries of the source, which are not always exact repeats. Equal values may be shown once. Read-outs that look alike come from different tables or passages of the source.
# How the values were obtained:
# βAR kinase = molecular target: T1, βAR kinase (Bos taurus, UniProt P21146); assay: Phosphorylation of purified reconstituted β2ARs by purified βAR kinase (Example II); assay type: biochemical, bovine; details: for IC50: 50 μM (−)-isoproterenol, read-out: IC50, inhibition of phosphorylation of reconstituted β2ARs by βAR kinase
# T1 construct: βAR kinase was purified from bovine cerebral cortex; from tissue; host or cells: bovine cerebral cortex
# T1 sequence (P21146 1-689): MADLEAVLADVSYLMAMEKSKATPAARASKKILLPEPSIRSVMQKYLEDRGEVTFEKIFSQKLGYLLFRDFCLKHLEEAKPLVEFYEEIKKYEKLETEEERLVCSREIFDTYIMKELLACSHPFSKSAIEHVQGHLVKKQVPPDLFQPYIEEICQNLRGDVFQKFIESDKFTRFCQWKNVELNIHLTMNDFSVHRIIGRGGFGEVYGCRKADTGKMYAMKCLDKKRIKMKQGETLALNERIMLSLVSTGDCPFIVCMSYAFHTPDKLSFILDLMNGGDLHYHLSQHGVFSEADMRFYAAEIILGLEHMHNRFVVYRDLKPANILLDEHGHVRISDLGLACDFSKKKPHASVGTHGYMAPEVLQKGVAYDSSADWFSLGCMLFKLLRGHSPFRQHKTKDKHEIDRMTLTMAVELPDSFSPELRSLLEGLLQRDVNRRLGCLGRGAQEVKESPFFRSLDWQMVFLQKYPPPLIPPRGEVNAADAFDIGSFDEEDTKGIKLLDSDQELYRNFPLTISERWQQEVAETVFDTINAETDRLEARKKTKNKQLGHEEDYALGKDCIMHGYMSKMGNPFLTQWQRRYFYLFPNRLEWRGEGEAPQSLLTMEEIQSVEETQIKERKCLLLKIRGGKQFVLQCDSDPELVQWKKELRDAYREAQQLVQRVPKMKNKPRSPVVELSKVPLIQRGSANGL
# [1] = tested on: β2ARs in permeabilized A431 cells; assay: Desensitization of β2ARs in permeabilized A431 cells; assay type: cell-based, human
# [2] = tested on: β2ARs in intact A431 cells; assay: Desensitization of β2ARs in intact A431 cells; assay type: cell-based, human; details: data not shown
substance,measurement,setting,value
heparin,"Inhibition of βAR kinase, %",βAR kinase; 0.1 μM,96 ± 1%
same,IC50,βAR kinase; listed as heparin,6.1 ± 2 nM
same,IC50,βAR kinase,6 nM
same,extent of inhibition of β2AR phosphorylation,βAR kinase; at 30-100 nM,almost complete inhibition
same,"Inhibition of Desensitization, %",[1]; 0.1 μM,102 ± 16%
same,effect on time course of desensitization,"[1]; 100 nM heparin, 1 μM (−)-isoproterenol",almost completely abolished
same,IC50,"[1]; 1 μM (−)-isoproterenol, 10 min, 37° C., read-out: IC50, inhibition of desensitization",21 nM and 20 nM
same,extent of inhibition of desensitization,[1]; at concentrations above 100 nM,virtually complete
same,effect on desensitization in intact cells,[2],Neither compound affected desensitization
